Assays:
rice = assay: Test C flooded paddy test; assay type: in vivo, Oryza sativa; details: Flood
Outline: (§1)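 Compound was added to standing water 3 cm above soil, flood maintained, and plants held in a greenhouse before visual scoring against controls at 13 to 15 days.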

corn = assay: Test A pre-/postemergence greenhouse test; assay type: in vivo, Zea mays; details: for Corn plant response rating: 0 to 100 scale; for Plant response rating, Corn: 0 to 100 scale where 0 is no effect and 100 is complete control
Outline: (§2)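 Untreated controls served as the reference for visual injury ratings taken about ten days after spraying. The non-phytotoxic solvent/surfactant formulation was applied preemergence to seeded loam and sand and postemergence to plants two to ten cm high.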

[1] = system: common (oilseed) sunflower; assay: Test C pre-/postemergence test; assay type: in vivo, Helianthus annuus; details: for Plant response rating, Sunflower: 31 g ai/ha, scale 0 to 100 (0 no effect, 100 complete control)
Outline: (§3)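 Test chemicals were formulated with surfactant in a non-phytotoxic solvent and sprayed both on freshly planted seeds (preemergence) and on 1- to 4-leaf plants of 2–18 cm (postemergence). Flooded-paddy pots received compound directly into 3 cm of standing water, maintained for the test.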

bermudagrass = assay: Test C pre-/postemergence test; assay type: in vivo, Cynodon dactylon; details: for Plant response rating, Bermudagrass: 31 g ai/ha
Outline: as §3

umbrella sedge = assay: Test C flooded paddy test; assay type: in vivo, Cyperus difformis; details: Flood
Outline: as §1

lambsquarters = assay: Test C pre-/postemergence test; assay type: in vivo, Chenopodium album; details: for Plant response rating, Lambsquarters: 31 g ai/ha, scale 0 to 100 (0 no effect, 100 complete control)
Outline: as §3

pigweed = assay: Test C pre-/postemergence test; assay type: in vivo, Amaranthus retroflexus; details: for Plant response rating, Pigweed: 31 g ai/ha, scale 0 to 100 (0 no effect, 100 complete control)
Outline: as §3

barnyardgrass = assay: Test A pre-/postemergence greenhouse test; assay type: in vivo, Echinochloa crus-galli; details: for Barnyardgrass plant response rating: 0 to 100 scale; for Plant response rating, Barnyardgrass: 0 to 100 scale where 0 is no effect and 100 is complete control
Outline: as §2

wheat [2] = assay: Test A pre-/postemergence greenhouse test; assay type: in vivo, Triticum aestivum; details: for Wheat plant response rating: 0 to 100 scale; for Plant response rating, Wheat: 0 to 100 scale where 0 is no effect and 100 is complete control
Outline: as §2

Surinam grass = assay: Test C pre-/postemergence test; assay type: in vivo, Brachiaria decumbens; details: for Plant response rating, Surinam Grass: 31 g ai/ha, scale 0 to 100 (0 no effect, 100 complete control)
Outline: as §3

wheat [3] = assay: Test C pre-/postemergence test; assay type: in vivo, Triticum aestivum; details: for Plant response rating, Wheat: 31 g ai/ha, scale 0 to 100 (0 no effect, 100 complete control)
Outline: as §3

Goosegrass = assay: Test C pre-/postemergence test; assay type: in vivo, Eleusin indica; details: for Plant response rating, Goosegrass: 31 g ai/ha, scale 0 to 100 (0 no effect, 100 complete control)
Outline: as §3

giant foxtail = assay: Test A pre-/postemergence greenhouse test; assay type: in vivo, Setaria faberi; details: for Foxtail, Giant plant response rating: 0 to 100 scale; for Plant response rating, Foxtail, Giant: 0 to 100 scale where 0 is no effect and 100 is complete control
Outline: as §2

crabgrass = assay: Test C pre-/postemergence test; assay type: in vivo, Digitaria sanguinalis; details: for Plant response rating, Crabgrass, Large: 31 g ai/ha, scale 0 to 100 (0 no effect, 100 complete control)
Outline: as §3

eastern black nightshade = assay: Test C pre-/postemergence test; assay type: in vivo, Solanum ptycanthum; details: for Plant response rating, Nightshade: 31 g ai/ha, scale 0 to 100 (0 no effect, 100 complete control)
Outline: as §3

morningglory = assay: Test A pre-/postemergence greenhouse test; assay type: in vivo, Ipomoea spp.; details: for Morningglory plant response rating: 0 to 100 scale; for Plant response rating, Morningglory: 0 to 100 scale where 0 is no effect and 100 is complete control
Outline: as §2

redroot pigweed = assay: Test A pre-/postemergence greenhouse test; assay type: in vivo, Amaranthus retroflexus; details: for Pigweed plant response rating: 0 to 100 scale; for Plant response rating, Pigweed: 0 to 100 scale where 0 is no effect and 100 is complete control
Outline: as §2

[4] = 31 g ai/ha, scale 0 to 100 (0 no effect, 100 complete control)
[5] = 62 g ai/ha, scale 0 to 100, 0 no effect, 100 complete control, 13 to 15 days
[6] = 125 g ai/ha, scale 0 to 100, 0 no effect, 100 complete control, 13 to 15 days
[7] = Postemergence, 125 g ai/ha, 0 is no effect, 100 is complete control
[8] = Postemergence, 500 g ai/ha, 0 is no effect, 100 is complete control
[9] = Preemergence, 125 g ai/ha, 0 no effect, 100 complete control
[10] = 62 g ai/ha, Preemergence, scale 0 to 100
[11] = 62 g ai/ha, Preemergence, scale 0 to 100 (0 no effect, 100 complete control)
[12] = Preemergence, scale 0 to 100 (0 no effect, 100 complete control)
[13] = 250 g ai/ha, scale 0 to 100, 0 no effect, 100 complete control, 13 to 15 days
[14] = 62 g ai/ha, scale 0 to 100 (0 no effect, 100 complete control)
[15] = 125 g ai/ha, preemergence, scale 0 (no effect) to 100 (complete control)
[16] = preemergence, 250 g ai/ha, scale 0 (no effect) to 100 (complete control)

## Cn1nc(C(F)(F)F)c(C[S+]([O-])c2ccc(Cl)c[n+]2[O-])c1Cl (racemic) [Compound 17]
rice; [4]
  Plant response rating, Rice: 0
rice; [5]
  Plant response rating, Rice: 70
rice; [6]
  Plant response rating, Rice: 75
rice; 250 g ai/ha, scale 0 to 100 (0 no effect, 100 complete control)
  Plant response rating, Rice: 80
corn; [7]
  Corn plant response rating: 50
corn; [8]
  Corn plant response rating: 60
corn; [9]
  Corn plant response rating: 0
corn; Preemergence, 500 g ai/ha
  Plant response rating, Corn: 80
[1]; [10]
  Sunflower plant response rating: 5
[1]; Preemergence
  Plant response rating, Sunflower: 0
bermudagrass; [11]
  Bermudagrass plant response rating: 100
bermudagrass; [12]
  Plant response rating, Bermudagrass: 80
bermudagrass; Preemergence, 250 g ai/ha
  Plant response rating (0 to 100), Bermudagrass: 100
bermudagrass; preemergence, 125 g ai/ha, scale 0 (no effect) to 100 (complete control)
  Bermudagrass plant response rating: 100
Umbrella sedge; [4]
  Plant response rating, Sedge, Umbrella: 60
Umbrella sedge; [5]
  Plant response rating, Sedge, Umbrella: 85
Umbrella sedge; [6]
  Plant response rating, Sedge, Umbrella: 95
Umbrella sedge; [13]
  Plant response rating, Sedge, Umbrella: 95
lambsquarters; [10]
  Lambsquarters plant response rating: 100
lambsquarters; Preemergence
  Plant response rating, Lambsquarters: 100
pigweed; [10]
  Pigweed plant response rating: 100
pigweed; Preemergence
  Plant response rating, Pigweed: 100
barnyardgrass; [7]
  Barnyardgrass plant response rating: 80
barnyardgrass; [8]
  Barnyardgrass plant response rating: 90
barnyardgrass; [9]
  Barnyardgrass plant response rating: 70
barnyardgrass; Preemergence, 500 g ai/ha
  Plant response rating, Barnyardgrass: 100
Wheat [2]; [7]
  Wheat plant response rating: 50
Wheat [2]; [8]
  Wheat plant response rating: 60
Wheat [2]; [9]
  Wheat plant response rating: 50
Wheat [2]; Preemergence, 500 g ai/ha
  Plant response rating, Wheat: 80
Surinam grass; [10]
  Surinam Grass plant response rating: 95
Surinam grass; Preemergence
  Plant response rating, Surinam Grass: 0
Wheat [3]; [10]
  Wheat plant response rating: 30
Wheat [3]; Preemergence
  Plant response rating, Wheat: 10
Goosegrass; [10]
  Goosegrass plant response rating: 100
Goosegrass; Preemergence
  Plant response rating, Goosegrass: 100
Goosegrass; Preemergence, 250 g ai/ha
  Plant response rating (0 to 100), Goosegrass: 100
Giant foxtail; [7]
  Foxtail, Giant plant response rating: 80
Giant foxtail; [8]
  Foxtail, Giant plant response rating: 90
Giant foxtail; [9]
  Foxtail, Giant plant response rating: 100
Giant foxtail; Preemergence, 500 g ai/ha
  Plant response rating, Foxtail, Giant: 100
crabgrass; [10]
  Crabgrass, Large plant response rating: 100
crabgrass; Preemergence
  Plant response rating, Crabgrass, Large: 98
crabgrass; Preemergence, 250 g ai/ha
  Plant response rating (0 to 100), Crabgrass, Large: 100
Eastern black nightshade; [10]
  Nightshade plant response rating: 100
Eastern black nightshade; Preemergence
  Plant response rating, Nightshade: 98
morningglory; [7]
  Morningglory plant response rating: 10
morningglory; [8]
  Morningglory plant response rating: 50
morningglory; [9]
  Morningglory plant response rating: 10
morningglory; Preemergence, 500 g ai/ha
  Plant response rating, Morningglory: 90
Redroot pigweed; [7]
  Pigweed plant response rating: 40
Redroot pigweed; [8]
  Pigweed plant response rating: 80
Redroot pigweed; [9]
  Pigweed plant response rating: 100
Redroot pigweed; Preemergence, 500 g ai/ha
  Plant response rating, Pigweed: 100

## Cn1nc(C(F)(F)F)c(CS(=O)(=O)c2ccc(Cl)c[n+]2[O-])c1OCC(F)(F)F [Compound 73]
rice; [14]
  Plant response rating, Rice: 0
rice; [13]
  Plant response rating, Rice: 20
corn; Postemergence, 125 g ai/ha
  Plant response rating, Corn: 0
corn; [8]
  Corn plant response rating: 0
corn; [9]
  Corn plant response rating: 0
corn; Preemergence, 500 g ai/ha
  Plant response rating, Corn: 30
[1]; [10]
  Sunflower plant response rating: 0
[1]; [15]
  Sunflower plant response rating: 35
[1]; Preemergence
  Plant response rating, Sunflower: 0
[1]; [16]
  Sunflower plant response rating: 40
bermudagrass; [11]
  Bermudagrass plant response rating: 100
bermudagrass; [15]
  Bermudagrass plant response rating: 100
bermudagrass; [12]
  Plant response rating, Bermudagrass: 80
bermudagrass; [16]
  Bermudagrass plant response rating: 100
Umbrella sedge; [14]
  Plant response rating, Sedge, Umbrella: 0
Umbrella sedge; [13]
  Plant response rating, Sedge, Umbrella: 65
lambsquarters; [10]
  Lambsquarters plant response rating: 100
lambsquarters; [15]
  Lambsquarters plant response rating: 100
lambsquarters; Preemergence
  Plant response rating, Lambsquarters: 50
lambsquarters; [16]
  Lambsquarters plant response rating: 100
pigweed; [10]
  Pigweed plant response rating: 100
pigweed; [15]
  Pigweed plant response rating: 100
pigweed; Preemergence
  Plant response rating, Pigweed: 90
pigweed; [16]
  Pigweed plant response rating: 100
barnyardgrass; Postemergence, 125 g ai/ha
  Plant response rating, Barnyardgrass: 70
barnyardgrass; [8]
  Barnyardgrass plant response rating: 80
barnyardgrass; [9]
  Barnyardgrass plant response rating: 90
barnyardgrass; Preemergence, 500 g ai/ha
  Plant response rating, Barnyardgrass: 90
Wheat [2]; Postemergence, 125 g ai/ha
  Plant response rating, Wheat: 0
Wheat [2]; [8]
  Wheat plant response rating: 30
Wheat [2]; [9]
  Wheat plant response rating: 0
Wheat [2]; Preemergence, 500 g ai/ha
  Plant response rating, Wheat: 50
Surinam grass; [15]
  Surinam Grass plant response rating: 80
Surinam grass; Preemergence
  Plant response rating, Surinam Grass: 40
Surinam grass; [16]
  Surinam Grass plant response rating: 80
Wheat [3]; [10]
  Wheat plant response rating: 0
Wheat [3]; [15]
  Wheat plant response rating: 10
Wheat [3]; Preemergence
  Plant response rating, Wheat: 0
Wheat [3]; [16]
  Wheat plant response rating: 20
Goosegrass; [10]
  Goosegrass plant response rating: 100
Goosegrass; [15]
  Goosegrass plant response rating: 100
Goosegrass; Preemergence
  Plant response rating, Goosegrass: 98
Goosegrass; [16]
  Goosegrass plant response rating: 100
Giant foxtail; Postemergence, 125 g ai/ha
  Plant response rating, Foxtail, Giant: 70
Giant foxtail; [8]
  Foxtail, Giant plant response rating: 90
Giant foxtail; [9]
  Foxtail, Giant plant response rating: 90
Giant foxtail; Preemergence, 500 g ai/ha
  Plant response rating, Foxtail, Giant: 100
crabgrass; [10]
  Crabgrass, Large plant response rating: 85
crabgrass; [15]
  Crabgrass, Large plant response rating: 85
crabgrass; Preemergence
  Plant response rating, Crabgrass, Large: 85
crabgrass; [16]
  Crabgrass, Large plant response rating: 95
Eastern black nightshade; [10]
  Nightshade plant response rating: 80
Eastern black nightshade; [15]
  Nightshade plant response rating: 80
Eastern black nightshade; Preemergence
  Plant response rating, Nightshade: 0
Eastern black nightshade; [16]
  Nightshade plant response rating: 85
morningglory; Postemergence, 125 g ai/ha
  Plant response rating, Morningglory: 0
morningglory; [8]
  Morningglory plant response rating: 20
morningglory; [9]
  Morningglory plant response rating: 20
morningglory; Preemergence, 500 g ai/ha
  Plant response rating, Morningglory: 40
Redroot pigweed; Postemergence, 125 g ai/ha
  Plant response rating, Pigweed: 10
Redroot pigweed; [8]
  Pigweed plant response rating: 60
Redroot pigweed; [9]
  Pigweed plant response rating: 90
Redroot pigweed; Preemergence, 500 g ai/ha
  Plant response rating, Pigweed: 100
